Legend:
[1] = Fluorescence response of probe to H2S (NaSH) in HEPES buffer; conditions: 10 μM probe, 100 μM NaSH, after one hour of reaction
Description: (§1) Millipore water was used to prepare all aqueous solutions. All spectroscopic measurements were performed in 20 mM HEPES buffer, pH 7.4. Fluorescence spectra were recorded on a Photon Technology International Quanta Master 4 L-format scanning spectrofluorometer (Lawrenceville, N.J.) equipped with an LPS-220B 75-W xenon lamp and power supply, A-1010B lamp housing with an integrated igniter, switchable 814 photon-counting/analog photomultiplier detection unit, and MD5020 motor driver. Samples for emission measurements were contained in 1-cm×0.1-cm quartz (1.5 mL volume, Starna, Atascadero, Calif.). Absorption spectra were recorded using a Varian Cary 50 spectrophotometer (Walnut Creek, Calif.).
A 10 μM solution of SF1 or SF2 in 20 mM HEPES buffered to pH 7.4 was prepared from a 5 mM stock solution of SF1 or SF2 in DMF in a 1.5 mL eppendorf tube. 10 μL of 10 mM stock solution of NaSH in degassed (by bubbling N2 for ˜30 min) 20 mM HEPES buffered at pH 7.4 was added (for a final concentration of 100 μM) and the mixture was vortexed for 10 s and then transferred to a cuvette. Emission spectra (λex=488 nm, λex=498-700 nm) were collected at 10, 20, 30, 40, 50, and 60 min. The spectrum at t=0 was acquired from a 10 μM solution of SF1 or SF2 without the addition of NaSH.
FIG. 2. Fluorescence responses of (a) 10 μM SF1 and (b) 10 μM SF2 to 100 μM H2S. […]

[2] = Selectivity tests: fluorescence responses to biologically relevant RSS, RNS and ROS; conditions: for turn-on response for H2S relative to other RSS, ROS and RNS: 10 μM probe, 20 mM HEPES pH 7.4; for selectivity for H2S over abundant biologically relevant thiols: 5 mM glutathione and 5 mM cysteine (50× the amount of H2S tested); for response to most biologically relevant ROS or RNS: H2O2, tBuOOH, OCl−, NO2−, NO; for fluorescence response to other relevant RSS: thiosulfate, thiocyanate, S-nitroso glutathione, lipoic acid
Description: Selectivities for the SF1 and SF2 probes were measured by fluorescence responses (λex=488 nm, λem=525 nm) at 0, 15, 30, 45, and 60 min. All assays were performed in 20 mM HEPES buffered to pH 7.4. • H2S: 10 μL of a 10 mM stock solution of NaSH in degassed HEPES was added to 10 μM SF1 or SF2 in HEPES with 0.2% DMF. • Glutathione and cysteine: 2 μL of 5 mM SF1 or SF2 in DMF was added to 998 μL 5 mM glutathione or cysteine HEPES. • Lipoic acid: 10 μL of a 10 mM stock solution of lipoic acid in HEPES was added to 990 μL of 10 μM SF1 or SF2 in HEPES with 0.2% DMF. • Na2SO3: 10 μL of a 10 mM stock solution of Na2SO3 in HEPES was added to 990 μL of 10 μM SF1 or SF2 in HEPES with 0.2% DMF. • NaS2O3: 10 μL of a 10 mM stock solution of NaS2O3 in HEPES was added to 990 μL of 10 μM SF1 or SF2 in HEPES with 0.2% DMF. • KSCN: 10 μL of a 10 mM stock solution of KSCN in HEPES was added to 990 μL of 10 μM SF1 or SF2 in HEPES with 0.2% DMF. • S-nitrosoglutathione:^S4 10 μL of a 10 mM stock solution of S-nitroso glutathione in HEPES was added to 990 μL of 10 μM SF1 or SF2 in HEPES with 0.2% DMF. • NaNO2: 10 μL of a 10 mM stock solution of NaNO2 in HEPES was added to 990 μL of 10 μM SF1 or SF2 in HEPES with 0.2% DMF. • NO: 5 μL of a 10 mM stock solution of Proli-NONOATE in degassed (by bubbling N2 for ˜30 min) 10 mM NaOH in HEPES was added to 995 μL of a degassed (by bubbling N2 for ˜30 min) solution of 10 μM SF1 or SF2 in HEPES with 0.2% DMF. • H2O2: 10 μL of a 10 mM stock solution of H2O2 in HEPES was added to 990 μL of 10 μM SF1 or SF2 in HEPES with 0.2% DMF. • O2^−: 100 μL of a saturated solution of KO2 in DMSO (˜1 mM) was added to 900 μL of 10 μM SF1 or SF2 in HEPES with 0.2% DMF. • ^tBuOOH: 10 μL of a 10 mM stock solution of tBuOOH in HEPES buffered to was added to 990 μL of 10 μM SF1 or SF2 in HEPES with 0.2% DMF. • HOCl: 10 μL of a 10 mM stock solution of HOCl in HEPES was added to 990 μL of 10 μM SF1 or SF2 in HEPES with 0.2% DMF.
FIG. 5. Fluorescence responses of (a) 10 μM SF1 and (b) 10 μM SF2 to biologically relevant RSS, RNS, and ROS. Bars represent relative responses at 525 nm at 0, 15, 30, 45, and 60 min after addition of RSS, RNS, or ROS. Data shown are for 5 mM glutathione, 5 mM cysteine, and 100 μM for other RSS, RNS, and ROS. Data were acquired in 20 mM HEPES buffered at pH 7.4 with excitation at λex=488 nm. 1. H2S; 2. glutathione; 3. cysteine; 4. lipoic acid; 5. Na2SO3; 6. NaS2O3; 7. KSCN; 8. S-nitroso glutathione; 9. NaNO2; 10. NO; 11. H2O2; 12. O2^−; 13. ^tBuOOH; 14. HOCl.

[3] = Spectroscopic properties (absorbance, emission, quantum yield); format: physicochemical; conditions: protected form, closed lactone conformation
Description: as §1
FIG. 1. Absorbance spectra of (a) 10 μM SF1 (b) 10 μM SF2, and 10 μM of rhodamine products (c) tert-butoxycarbonyl-rhodamine 110 and (d) morpholinourea-rhodamine 110.
Quantum yields were determined using fluorescein as a standard according to a published method.^S3 For each compound and fluorescein, the absorbance spectra were measured within an absorbance range of 0.01 to 0.1. The quantum yield was calculated according to the equation: Φsample=Φstandard (Gradsample/Gradstandard)[…], where Φ is the quantum yield, Φstandard=0.95 in 0.1 M NaOH, Grad is the slope of the plot of […], and η is the refractive index of the solvent.

SMILES | turn-on response (fluorescence) [1] [fold] | selectivity for H2S versus superoxide (O2−) [2] | turn-on response for H2S relative to other RSS, ROS and RNS [2] | selectivity for H2S over abundant biologically relevant thiols [2] | response to most biologically relevant ROS or RNS [2] | fluorescence response to other relevant RSS ([2]; sulfite) | absorption of the protected probe in the visible region [3] | fluorescence properties in vitro as compared to SF1 ([2]; greater response to H2S, lower background reactivity, better selectivity versus glutathione, sulfite, O2−)
CC(C)(C)OC(=O)Nc1ccc2c(c1)Oc1cc(N=[N+]=[N-])ccc1C21OC(=O)c2ccccc21 (stereo not drawn) [SF1, Sulfidefluor-1] | 7 | good selectivity | selective turn-on response | high selectivity | do not respond | negligible or small fluorescence responses | no absorption features in the visible region | –
[N-]=[N+]=Nc1ccc2c(c1)Oc1cc(NC(=O)N3CCOCC3)ccc1C21OC(=O)c2ccccc21 (stereo not drawn) [SF2, Sulfidefluor-2] | 9 | good selectivity | selective turn-on response | high selectivity | do not respond | negligible or small fluorescence responses | no absorption features in the visible region | more favorable fluorescence properties in vitro

— patent US9212189B2, “Fluorescent probes for reactive sulfur species” (THE REGENTS OF THE UNIVERSITY OF CALIFORNIA, priority 2011, dated 2015)
